How the values were obtained:
Experiment in all cases: Challenge Test (artificial contamination) of cosmetic formula
Format in all cases: cell-based
[1] = test system: Aspergillus niger (An) ATCC 6275; details: 2% compound in cosmetic formula, inoculum approx. 10^6 CFU/g
Method: (§1) The antimicrobial efficacy of a compound of formula (I) was evaluated by the Challenge Test or artificial contamination method.
(§2) The challenge test method consists of an artificial contamination of the sample with microbial strains from collection (bacteria, yeasts and moulds) and of an evaluation of the number of revivable microorganisms seven days after inoculation.
(§3) 5 pure cultures of microorganisms are used.
(§4) The gram−bacterial strains (Escherichia coli and Pseudomonas aeruginosa), the gram+bacterial strain (Enterococcus faecalis), the yeast strain (Candida albicans), and the mould strain (Aspergillus niger) are inoculated into subculturing medium, respectively the day before inoculation for the bacteria and the yeast, and 5 days before inoculation for the mould.
(§5) On the day of inoculation: • a suspension in tryptone salt diluent is prepared respectively for the bacteria and the yeast in such a way as to obtain, on a spectrophotometer, a suspension having an optical density between 35% and 45% of transmitted light at 544 nm; • for the mould, the spores are taken by washing the agar with 6 to 7 ml of harvesting solution and the suspension is recovered in a sterile flask or tube.
(§6) After having homogenized the microbial suspension, 0.2 ml of inoculum (the suspensions are used pure: between 1×10^8 and 3×10^8 CFU per ml) are placed in each pill bottle and the microbial suspension is completely homogenized in the 20 g of product (=cosmetic formula) using a spatula.
(§7) The amount of microorganisms present in the product corresponds, after homogenization, to a concentration of 10^6 microorganisms per gram of product, i.e. the inoculation at 1% of an inoculum containing 10^8 microorganisms per ml. After 7 or 14 days of contact time between the microorganisms and the product at 22° C.±2° C. and in the dark, ten-fold dilutions are carried out and the number of revivable microorganisms remaining in the product is counted.

[2] = test system: Candida albicans (Ca) ATCC 10231; details: 2% compound in cosmetic formula; inoculum approx. 10^6 CFU/g; 7 days at 22° C. in the dark; <200 CFU = sensitivity threshold
Method: as §1, §2, §3, §4, §5, §6, §7

[3] = test system: Enterococcus faecalis (Ef) ATCC 33186; details: 2% compound in cosmetic formula, inoculum approx. 10^6 CFU/g
Method: as §1, §2, §3, §4, §5, §6, §7

[4] = test system: Escherichia coli (Ec) ATCC 8739; details: 2% compound in cosmetic formula; inoculum approx. 10^6 CFU/g; 7 days at 22° C. in the dark; <200 CFU = sensitivity threshold
Method: as §1, §2, §3, §4, §5, §6, §7

[5] = test system: Pseudomonas aeruginosa (Pa) ATCC 19429; details: 2% compound in cosmetic formula; inoculum approx. 10^6 CFU/g; 7 days at 22° C. in the dark; <200 CFU = sensitivity threshold
Method: as §1, §2, §3, §4, §5, §6, §7

COc1ccc(CCC(C)=O)cc1OC
Number of CFU/gram of product at T = 7 days, A. niger ([1]; 7 days at 22° C. in the dark): 1.4 · 10^6 CFU/gram of product | Number of CFU/gram of product at T = 14 days, A. niger ([1]; 14 days at 22° C. in the dark): 3.6 · 10^5 CFU/gram of product | Number of CFU/gram of product at T = 7 days, C. albicans [2]: <200 CFU/gram of product | Number of CFU/gram of product at T = 7 days, E. faecalis ([3]; 7 days at 22° C. in the dark): 7.3 · 10^5 CFU/gram of product | Number of CFU/gram of product at T = 14 days, E. faecalis ([3]; 14 days at 22° C. in the dark): 3.3 · 10^8 CFU/gram of product | Number of CFU/gram of product at T = 7 days, E. coli [4]: <200 CFU/gram of product | Number of CFU/gram of product at T = 7 days, P. aeruginosa [5]: <200 CFU/gram of product

Source: patent US9381143B2, “Use of substituted methoxyalkoxyphenylalkyl derivatives as preservative, preserving method, compounds and composition” (L'OREAL, priority 2010, dated 2016)
